Where a name gives a salt, the structure may show the parent alone. A value given as a limit tells only on which side of the number the result lay.

The first assay deals with T1, recombinant human arginase 1 (Homo sapiens, UniProt P05089).
T1 construct: purchased Biolegend 552502
T1 sequence (P05089 1-322): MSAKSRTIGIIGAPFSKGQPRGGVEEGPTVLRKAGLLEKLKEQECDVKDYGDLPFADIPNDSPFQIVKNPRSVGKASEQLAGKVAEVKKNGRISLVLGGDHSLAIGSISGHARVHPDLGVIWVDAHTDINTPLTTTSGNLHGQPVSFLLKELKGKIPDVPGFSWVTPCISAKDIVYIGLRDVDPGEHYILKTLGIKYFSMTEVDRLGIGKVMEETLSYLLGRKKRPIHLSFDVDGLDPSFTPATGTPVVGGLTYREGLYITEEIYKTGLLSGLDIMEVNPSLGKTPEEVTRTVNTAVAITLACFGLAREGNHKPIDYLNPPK
As to the kind of experiment: Human arginase activity assay (urea measurement), arginase 1. As to conditions: recombinant human arginase 1, pH 7.4, 37° C., 60 min; * = value for the most potent diastereoisomer or the mixture of diastereoisomers; read-out: Activity Class (ARG I). The format is biochemical. The procedure:
(§1) Human Arginase Activity Assay
The assay was run in the 96-well plate format, each reaction in the total volume of 100 uL. The assay is based on urea measurement, which is a product of L-arginine enzymatic degradation. […] The color product is developed by adding a mixture of reagent A (4 mM oPA in 50 mM boric acid in 1M sulfuric acid, 0.03% Brij-35) and reagent B (4 mM NED in 50 mM boric acid in 1M sulfuric acid, 0.03% Brij-35) in equal proportions. The absorbance for each well was measured at 530 nm.
(§2) For positive control, only the enzyme and substrate were used, the negative controls contained substrate solution with assay buffer. After incubating the microtiter plate at 37° C. for 60 min 150 μL of mixed reagents A and B was added to each well to stop the reaction. Absorbance was measured (λ=530 nm) 20 minutes later, after color development. The urea production in the absence of any compound was considered the maximum arginase activity. The absorbance in the absence of arginase (background) was subtracted from all the values. The normalized OD was used to generate a concentration-response curve by plotting the percent of inhibition against log[concentration] of the compound and using regression analysis (GraphPad Prism 7.0) to compute the IC50 values.
Turning to `COc1ccc(N(C)C[C@@H]2CC[C@@H](CCB(O)O)C[C@]2(N)C(=O)O)cc1` (racemic) [Example 37, rac-(1R,2S,5R)-1-amino-5-(2-boronoethyl)-2-(((4-methoxyphenyl)(methyl)amino)methyl)cyclohexanecarboxylic acid dihydrochloride], the IC50 is 1 to 10 µM.

`NC1(C(=O)O)CC(CCB(O)O)N(Cc2ccccc2)C1` (stereo not shown) [Example 8, 3-Amino-1-benzyl-5-(2-boronoethyl)pyrrolidine-3-carboxylic acid dihydrochloride]: the IC50 was greater than 100 µM.

With `NC1(C(=O)O)CC(CCB(O)O)CCC1CCN1CCCC1` (racemic) [Example 25, 1-Amino-5-(2-boronoethyl)-2-(2-(pyrrolidin-1-yl)ethyl)cyclohexane-1-carboxylic acid dihydrochloride], the IC50 fell in the range of 0.001 to 0.1 µM.

As for `N[C@]1(C(=O)O)C[C@H](CCB(O)O)CC[C@H]1CN1CCC(c2ccc(Cl)cc2)CC1` (racemic) [Example 27, rac-(1R,2S,5R)-1-amino-5-(2-boronoethyl)-2-((4-(4-chlorophenyl)piperidin-1-yl)methyl)cyclohexanecarboxylic acid dihydrochloride], the IC50 is 0.1 to 1 µM.

For `CN(C)C[C@@H]1CC[C@@H](CCB(O)O)C[C@]1(N)C(=O)O` (racemic) [Example 17, rac-(1R,2S,5R)-1-Amino-5-(2-boronoethyl)-2-((dimethylamino)methyl)-cyclohexane-1-carboxylic acid dihydrochloride], the IC50 was in the range of 0.001 to 0.1 µM.

As for `NC1(C(=O)O)CNC(CCB(O)O)C1` (stereo not shown) [Example 9, 3-Amino-5-(2-boronoethyl)pyrrolidine-3-carboxylic acid dihydrochloride], the IC50 is greater than 100 µM.

For the compound `NC1(C(=O)O)CC(CCB(O)O)CCC1(O)Cc1ccc(Cl)cc1` (single isomer, unassigned) [Example 52, 1-amino-5-(2-boronoethyl)-2-(4-chlorobenzyl)-2-hydroxycyclohexanecarboxylic acid hydrochloride], the IC50 lay in the range of 10 to 100 µM.

For `CN(Cc1ccccc1)CC1CCC(CCB(O)O)CC1(N)C(=O)O` (stereo not shown) [Example 21, 1-Amino-2-((benzyl(methyl)amino)methyl)-5-(2-boronoethyl)cyclohexane-1-carboxylic acid dihydrochloride], the IC50 lay within 0.1 to 1 µM.

As to `N[C@@]1(C(=O)O)CNC[C@H](CCB(O)O)C1` (racemic) [Example 58, rac-(3R,5R)-3-amino-5-(2-boronoethyl)piperidine-3-carboxylic acid], the IC50 lay in the range of 10 to 100 µM.

Consider `N[C@@]1(C(=O)O)C[C@H](CCB(O)O)CC[C@H]1O` (racemic) [Example 14, rac-(1S,2R,5R)-1-Amino-5-(2-boronoethyl)-2-hydroxycyclohexane-1-carboxylic acid hydrochloride], for which the IC50 lay in the range of 10 to 100 µM.

As to `CN(C)C[C@@H]1C[C@@H](CCB(O)O)CC(N)(C(=O)O)C1` (mixture of isomers) [Example 55, rac-(3R,5R)-1-amino-3-(2-boronoethyl)-5-((dimethylamino)methyl)cyclohexanecarboxylic acid dihydrochloride], the IC50 is 1 to 10 µM.

For `NC1(C(=O)O)CC(CCB(O)O)CCC1CO` (stereo not shown) [Example 49, 1-amino-5-(2-boronoethyl)-2-(hydroxymethyl)cyclohexanecarboxylic acid hydrochloride], the IC50 lay within 1 to 10 µM.

Turning to `COC(=O)[C@@]1(N)C[C@H](CCB(O)O)CC[C@H]1CN(C)C` [Example 43, (2-((1R,3R,4S)-3-amino-4-((dimethylamino)methyl)-3-(methoxycarbonyl)cyclohexyl)ethyl)boronic acid dihydrochloride], the IC50 was 10 to 100 µM.

For the compound `CN(C)CC1CC(CCB(O)O)CC1(N)C(=O)O` (racemic) [Example 67, 1-amino-4-(2-boronoethyl)-2-((dimethylamino)methyl)cyclopentane-1-carboxylic acid], the IC50 lay within 10 to 100 µM.

Turning to `NCC1CC(CCB(O)O)CC1(N)C(=O)O` (stereo not shown) [Example 66, 1-amino-2-(aminomethyl)-4-(2-boronoethyl)cyclopentane-1-carboxylic acid dihydrochloride], the IC50 was in the range of 0.1 to 1 µM.

Regarding `NC[C@H]1C[C@@](N)(C(=O)O)C[C@@H]1CCB(O)O` (racemic) [Example 7, rac-(1R,3S,4S)-1-Amino-3-(aminomethyl)-4-(2-boronoethyl)cyclopentane-1-carboxylic acid dihydrochloride], the IC50 fell in the range of 1 to 10 µM.

On to `CN(C)C1CCC(CCB(O)O)CC1(N)C(=O)O` (racemic) [Example 64, rac-(1R,5R)-1-amino-5-(2-boronoethyl)-2-(dimethylamino)cyclohexane-1-carboxylic acid dihydrochloride], for which the IC50 fell in the range of 10 to 100 µM.

Turning to `N[C@]1(C(=O)O)CCC[C@@H](CCB(O)O)C1` (racemic) [Example 11, rac-(1R,3R)-1-Amino-3-(2-boronoethyl)cyclohexane-1-carboxylic acid hydrochloride], the IC50 was 10 to 100 µM.

Take `N[C@]1(C(=O)O)C[C@H](CCB(O)O)CC[C@H]1CN1Cc2ccccc2C1` (racemic) [Example 29, rac-(1R,2S,5R)-1-amino-5-(2-boronoethyl)-2-(isoindolin-2-ylmethyl)cyclohexanecarboxylic acid dihydrochloride]: the IC50 lay in the range of 0.1 to 1 µM.

For `N[C@@]1(C(=O)O)COC[C@H](CCB(O)O)C1` (racemic) [Example 60, rac-(3R,5R)-3-amino-5-(2-boronoethyl)tetrahydro-2H-pyran-3-carboxylic acid hydrochloride], the IC50 was in the range of 10 to 100 µM.

As to `CC([C@@H]1CC[C@@H](CCB(O)O)C[C@]1(N)C(=O)O)N(C)C` (stereo partly drawn) [Example 42, (1R,2S,5R)-1-amino-5-(2-boronoethyl)-2-(1-(dimethylamino)ethyl)cyclohexanecarboxylic acid dihydrochloride], the IC50 lay in the range of 10 to 100 µM.

With `N[C@]1(C(=O)O)C[C@H](CCB(O)O)CC[C@H]1CN1CCCC1` [Example 23, (1R,2S,5R)-1-Amino-5-(2-boronoethyl)-2-(pyrrolidin-1-ylmethyl)-cyclohexane-1-carboxylic acid dihydrochloride], the IC50 is 0.001 to 0.1 µM.

Turning to `NC1(C(=O)O)CC(CCB(O)O)CCC1CN1CCOCC1` (stereo not shown) [Example 20, 1-Amino-5-(2-boronoethyl)-2-(morpholinomethyl)cyclohexane-1-carboxylic acid dihydrochloride], the IC50 was 1 to 10 µM.

In another assay the target is T2, recombinant human arginase 2 (Homo sapiens, UniProt P78540).
T2 construct: made in house; host or cells: CHO
T2 sequence (P78540 23-354): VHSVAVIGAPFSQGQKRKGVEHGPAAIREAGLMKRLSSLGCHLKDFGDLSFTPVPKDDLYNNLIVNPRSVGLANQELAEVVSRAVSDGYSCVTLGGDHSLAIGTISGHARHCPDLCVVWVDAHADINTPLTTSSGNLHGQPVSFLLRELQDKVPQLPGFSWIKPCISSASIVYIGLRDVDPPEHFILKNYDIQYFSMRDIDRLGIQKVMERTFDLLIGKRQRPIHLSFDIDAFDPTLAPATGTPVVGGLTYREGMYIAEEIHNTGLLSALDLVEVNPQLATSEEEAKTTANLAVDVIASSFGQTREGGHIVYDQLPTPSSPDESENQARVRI
Nature of the assay: Human arginase activity assay (urea measurement), arginase 2. The format is biochemical. As to conditions: for selected examples class estimated from % of inhibition at 1 μM and 100 μM, * = most potent diastereoisomer or mixture of diastereoisomers, read-out: Activity Class (ARG II). As to the method:
as §1
An enzymatic assay with recombinant human arginases 1 (Biolegend, Cat. No. 552502) and 2 (homemade in eukaryotic expression system of CHO, purified by FPLC) was used in order to assess inhibitory activity of the compounds. The assay was run in the 96-well plate format, each reaction in the total volume of 100 uL. The assay is based on urea measurement, which is a product of L-arginine enzymatic degradation. (Baggio et al. J Pharmacol. Exp. Ther. 1999, 290, 1409-1416). The color product is developed by adding a mixture of reagent A (4 mM oPA in 50 mM boric acid in 1M sulfuric acid, 0.03% Brij-35) and reagent B (4 mM NED in 50 mM boric acid in 1M sulfuric acid, 0.03% Brij-35) in equal proportions. The absorbance for each well was measured at 530 nm.
as §2, with “Briefly, to each well of a 96-well microtiter plate 40 μL of enzyme in the reaction assay buffer (pH 7.4, 100 mM sodium phosphate buffer, 130 mM NaCl, 1 mg/mL albumin), 50 μL of the test compound solution and 10 μL of enzyme substrate solution (L-arginine hydrochloride, natural pH 5.6, final concentration 20 mM and a cofactor—manganese chloride, final concentration 150 μM) was added. For” for “For”
For selected examples the activity class for ARG2 was estimated based on % of inhibition for 1 μM and 100 μM concentration of tested compounds.
Consider `COc1ccc(N(C)C[C@@H]2CC[C@@H](CCB(O)O)C[C@]2(N)C(=O)O)cc1` (racemic) [Example 37, rac-(1R,2S,5R)-1-amino-5-(2-boronoethyl)-2-(((4-methoxyphenyl)(methyl)amino)methyl)cyclohexanecarboxylic acid dihydrochloride], for which the IC50 was 1 to 10 µM.

Consider `NC1(C(=O)O)CNC(CCB(O)O)C1` (stereo not shown) [Example 9, 3-Amino-5-(2-boronoethyl)pyrrolidine-3-carboxylic acid dihydrochloride], for which the IC50 was greater than 100 µM.

Regarding `NC1(C(=O)O)CCC(CCB(O)O)C1` (racemic) [Example 1, 1-amino-3-(2-boronoethyl)cyclopentane-1-carboxylic acid], the IC50 is 1 to 10 µM.

With `NC1(C(=O)O)CC(CCB(O)O)CCC1(O)Cc1ccc(Cl)cc1` (single isomer, unassigned) [Example 52, 1-amino-5-(2-boronoethyl)-2-(4-chlorobenzyl)-2-hydroxycyclohexanecarboxylic acid hydrochloride], the IC50 is 10 to 100 µM.

Consider `CN(Cc1ccccc1)CC1CCC(CCB(O)O)CC1(N)C(=O)O` (stereo not shown) [Example 21, 1-Amino-2-((benzyl(methyl)amino)methyl)-5-(2-boronoethyl)cyclohexane-1-carboxylic acid dihydrochloride], for which the IC50 is 1 to 10 µM.

These data come from patent US12053451B2, “Arginase inhibitors and their therapeutic applications” (OncoArendi Therapeutics S.A., priority 2016, dated 2024).
